Reference: patent US8614327B2 (Vertex Pharmaceuticals Incorporated, priority 2004, dated 2013)

Target: T1, ΔF508-CFTR (Homo sapiens, UniProt P13569, DEL508-508)
T1 construct: expressed in transfected cells
Assay: Membrane potential optical (FRET/VIPR) assay, identification of potentiator compounds
Type: cell-based
Settings: Table 3, assay not given; for % Activity: relative efficacy
Summary of the method: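 NIH3T3 mouse fibroblasts stably expressing ΔF508-CFTR, temperature-corrected 24 h at 27° C., read on VIPR by FRET between CC2-DMPE and DiSBAC2(3). Potentiators identified in a double-addition format, first adding chloride-free (gluconate) medium with or without compound.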

T1 sequence (P13569 with tags, fused parts or gaps DEL508-508): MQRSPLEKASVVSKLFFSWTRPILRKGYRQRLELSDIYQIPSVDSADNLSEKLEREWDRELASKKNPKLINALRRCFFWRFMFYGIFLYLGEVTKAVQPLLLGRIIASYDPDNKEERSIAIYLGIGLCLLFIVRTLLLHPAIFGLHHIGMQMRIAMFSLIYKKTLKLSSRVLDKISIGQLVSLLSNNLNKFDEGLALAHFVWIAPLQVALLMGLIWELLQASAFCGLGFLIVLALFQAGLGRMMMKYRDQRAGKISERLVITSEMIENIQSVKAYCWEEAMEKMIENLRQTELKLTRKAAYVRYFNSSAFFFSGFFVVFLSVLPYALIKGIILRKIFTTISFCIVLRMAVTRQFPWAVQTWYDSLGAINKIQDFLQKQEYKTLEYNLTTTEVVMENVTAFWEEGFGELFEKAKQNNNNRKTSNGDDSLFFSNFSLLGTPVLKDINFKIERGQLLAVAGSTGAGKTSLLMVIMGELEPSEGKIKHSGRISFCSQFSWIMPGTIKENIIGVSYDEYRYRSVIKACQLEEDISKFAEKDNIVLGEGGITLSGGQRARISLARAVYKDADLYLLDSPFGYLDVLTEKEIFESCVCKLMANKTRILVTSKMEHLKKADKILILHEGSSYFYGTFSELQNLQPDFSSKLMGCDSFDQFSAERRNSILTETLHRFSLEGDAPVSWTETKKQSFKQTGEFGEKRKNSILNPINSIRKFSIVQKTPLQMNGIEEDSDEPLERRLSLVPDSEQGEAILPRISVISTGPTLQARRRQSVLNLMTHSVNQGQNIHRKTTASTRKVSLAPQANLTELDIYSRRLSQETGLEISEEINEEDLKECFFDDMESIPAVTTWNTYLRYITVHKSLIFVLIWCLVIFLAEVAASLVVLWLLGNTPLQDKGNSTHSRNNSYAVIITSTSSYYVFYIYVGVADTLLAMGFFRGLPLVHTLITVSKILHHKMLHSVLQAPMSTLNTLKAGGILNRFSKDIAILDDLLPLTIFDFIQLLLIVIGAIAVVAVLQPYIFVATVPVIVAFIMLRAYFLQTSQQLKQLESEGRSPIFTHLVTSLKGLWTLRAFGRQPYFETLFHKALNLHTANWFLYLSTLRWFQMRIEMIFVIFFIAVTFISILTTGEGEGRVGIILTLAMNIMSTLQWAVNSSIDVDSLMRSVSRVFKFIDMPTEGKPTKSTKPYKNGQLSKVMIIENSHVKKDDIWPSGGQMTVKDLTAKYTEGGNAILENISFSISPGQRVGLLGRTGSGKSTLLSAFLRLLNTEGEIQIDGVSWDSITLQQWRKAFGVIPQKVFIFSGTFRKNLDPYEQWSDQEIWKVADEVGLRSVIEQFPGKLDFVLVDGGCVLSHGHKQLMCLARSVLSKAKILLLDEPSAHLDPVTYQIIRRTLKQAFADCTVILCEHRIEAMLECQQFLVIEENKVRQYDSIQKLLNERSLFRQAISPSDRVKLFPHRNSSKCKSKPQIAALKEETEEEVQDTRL

Row | SMILES | EC50 | % Activity
1 | O=C(Nc1ccc2ncccc2c1)c1c[nH]c2ccccc2c1=O [Compound 280, 4-oxo-N-(6-quinolyl)-1H-quinoline-3-carboxamide] | 25 to 60 µM | + (<25%)
2 | O=C(Nc1ccc(N2CCC(CO)CC2)cc1C(F)(F)F)c1c[nH]c2ccccc2c1=O [Compound 668, N-[4-[4-(hydroxymethyl)-1-piperidyl]-2-(trifluoromethyl)phenyl]-4-oxo-1H-quinoline-3-carboxamide] | < 10 µM | ++ (between 25% to 100%)
3 | O=C(Nc1cc(O)c(C2CCCC2)cc1C#CCO)c1c[nH]c2ccccc2c1=O [Compound 512, N-[4-cyclopentyl-5-hydroxy-2-(3-hydroxyprop-1-ynyl)phenyl]-4-oxo-1H-quinoline-3-carboxamide] | < 10 µM | ++ (between 25% to 100%)
4 | CS(=O)(=O)c1ccc(-c2ccccc2NC(=O)c2c[nH]c3ccccc3c2=O)cc1 [Compound 326, N-[2-(4-methylsulfonylphenyl)phenyl]-4-oxo-1H-quinoline-3-carboxamide] | 10 to 25 µM | ++ (between 25% to 100%)
5 | O=C(Nc1ccc(F)cn1)c1c[nH]c2ccccc2c1=O [Compound 477, N-(5-fluoro-2-pyridyl)-4-oxo-1H-quinoline-3-carboxamide] | 25 to 60 µM | + (<25%)
6 | O=C(Nc1ccccc1-c1ccc(F)c(F)c1)c1c[nH]c2ccccc2c1=O [Compound 76, N-[2-(3,4-difluorophenyl)phenyl]-4-oxo-1H-quinoline-3-carboxamide] | < 10 µM | ++ (between 25% to 100%)
7 | CC(C)(C)c1ccc(NC(=O)c2c[nH]c3ccccc3c2=O)cc1N [Compound 271, N-(3-amino-4-tert-butyl-phenyl)-4-oxo-1H-quinoline-3-carboxamide] | < 10 µM | ++ (between 25% to 100%)
8 | COc1cc(N2CCCC2)ccc1NC(=O)c1c[nH]c2ccccc2c1=O [Compound 675, N-(2-methoxy-4-pyrrolidin-1-yl-phenyl)-4-oxo-1H-quinoline-3-carboxamide] | < 10 µM | ++ (between 25% to 100%)
9 | N#Cc1ccc(-c2ccccc2NC(=O)c2c[nH]c3ccccc3c2=O)s1 [Compound 93, N-[2-(5-cyano-2-thienyl)phenyl]-4-oxo-1H-quinoline-3-carboxamide] | < 10 µM | ++ (between 25% to 100%)
10 | O=C(Nc1ccc2ccn(Cc3ccccc3)c2c1)c1c[nH]c2ccccc2c1=O [Compound 203, N-(1-benzyl-1H-indol-6-yl)-4-oxo-1H-quinoline-3-carboxamide] | < 10 µM | ++ (between 25% to 100%)
11 | CC(C)(C)OC(=O)NCCc1c[nH]c2cc(NC(=O)c3c[nH]c4ccccc4c3=O)ccc12 [Compound 352, 2-[6-[(4-oxo-1H-quinolin-3-yl)carbonylamino]-1H-indol-3-yl]ethylaminoformic acid tert-butyl ester] | < 10 µM | ++ (between 25% to 100%)
12 | COc1ccc(OC)c(-c2ccccc2NC(=O)c2c[nH]c3ccccc3c2=O)c1 [Compound 361, N-[2-(2,5-dimethoxyphenyl)phenyl]-4-oxo-1H-quinoline-3-carboxamide] | – | +++ (>100%)
13 | CCc1cccc2c(=O)c(C(=O)Nc3cc(O)c(C(C)(C)C)cc3F)c[nH]c12 [Compound 605, 8-ethyl-N-(2-fluoro-5-hydroxy-4-tert-butyl-phenyl)-4-oxo-1H-quinoline-3-carboxamide] | 10 to 25 µM | + (<25%)
14 | COc1cc(NC(=O)c2c[nH]c3ccccc3c2=O)ccc1C(C)(C)C [Compound 2, N-(3-methoxy-4-tert-butyl-phenyl)-4-oxo-1H-quinoline-3-carboxamide] | < 10 µM | ++ (between 25% to 100%)
15 | Cc1cc(C2CCCCC2)ccc1NC(=O)c1c[nH]c2ccccc2c1=O [Compound 647, N-(4-cyclohexyl-2-methyl-phenyl)-4-oxo-1H-quinoline-3-carboxamide] | < 10 µM | ++ (between 25% to 100%)
16 | O=C(Nc1ccc(C(F)(F)F)cc1)c1c[nH]c2ccccc2c1=O [Compound 236, 4-oxo-N-[4-(trifluoromethyl)phenyl]-1H-quinoline-3-carboxamide] | < 10 µM | ++ (between 25% to 100%)
17 | C[C@@H]1CCCN1c1ccc(NC(=O)c2c[nH]c3ccccc3c2=O)c(C(F)(F)F)c1 [Compound 572, (R)-N-(4-(2-methylpyrrolidin-1-yl)-2-(trifluoromethyl)phenyl)-4-oxo-1,4-dihydroquinoline-3-carboxamide] | – | ++ (between 25% to 100%)
18 | Cc1cc(C(C)(C)C)c(O)cc1NC(=O)c1c[nH]c2ccc(F)cc2c1=O [Compound 683, 6-fluoro-N-(5-hydroxy-2-methyl-4-tert-butyl-phenyl)-4-oxo-1H-quinoline-3-carboxamide] | < 10 µM | ++ (between 25% to 100%)

Row | SMILES | EC50 | % Activity
19 | CCOc1cccc(-c2ccccc2NC(=O)c2c[nH]c3ccccc3c2=O)c1 [Compound 306, N-[2-(3-ethoxyphenyl)phenyl]-4-oxo-1H-quinoline-3-carboxamide] | < 10 µM | +++ (>100%)
20 | COC(=O)Nc1ccc(C(C)C)c(NC(=O)c2c[nH]c3ccccc3c2=O)c1 [Compound 239, [4-isopropyl-3-[(4-oxo-1H-quinolin-3-yl)carbonylamino]phenyl]aminoformic acid methyl ester] | < 10 µM | ++ (between 25% to 100%)
21 | CC1CCN(c2ccc(NC(=O)c3c[nH]c4ccccc4c3=O)c(C(F)(F)F)c2)C1 (stereo not shown) [Compound 555, N-[4-(3-methylpyrrolidin-1-yl)-2-(trifluoromethyl)phenyl]-4-oxo-1H-quinoline-3-carboxamide] | < 10 µM | ++ (between 25% to 100%)
22 | CC(C)(C)c1cc(C(C)(C)C)c(NC(=O)c2c[nH]c3cc(F)c(F)cc3c2=O)cc1O [Compound 672, 6,7-difluoro-N-(5-hydroxy-2,4-ditert-butyl-phenyl)-4-oxo-1H-quinoline-3-carboxamide] | < 10 µM | ++ (between 25% to 100%)
23 | O=C(Nc1ccc2c(c1)OC(F)(F)O2)c1c[nH]c2ccccc2c1=O [Compound 66, N-(2,2-difluorobenzo[1,3]dioxol-5-yl)-4-oxo-1H-quinoline-3-carboxamide] | 10 to 25 µM | ++ (between 25% to 100%)
24 | CC(C)(C)c1cc2cc[nH]c2cc1NC(=O)c1c[nH]c2ccccc2c1=O [Compound 381, 4-oxo-N-(5-tert-butyl-1H-indol-6-yl)-1H-quinoline-3-carboxamide] | < 10 µM | ++ (between 25% to 100%)
25 | COc1ccc(NC(=O)c2c[nH]c3ccccc3c2=O)cc1N [Compound 378, N-(3-amino-4-methoxy-phenyl)-4-oxo-1H-quinoline-3-carboxamide] | 10 to 25 µM | ++ (between 25% to 100%)
26 | CN1CCC(C)(C)c2ccc(NC(=O)c3c[nH]c4ccccc4c3=O)cc21 [Compound 710, 4-oxo-N-(1,4,4-trimethyl-2,3-dihydroquinolin-7-yl)-1H-quinoline-3-carboxamide] | < 10 µM | ++ (between 25% to 100%)
27 | O=C(Nc1cccn2ncnc12)c1c[nH]c2ccccc2c1=O [Compound 146, 4-oxo-N-(1,7,9-triazabicyclo[4.3.0]nona-2,4,6,8-tetraen-5-yl)-1H-quinoline-3-carboxamide] | 25 to 60 µM | + (<25%)
28 | CCc1cc(C(C)(C)C)c(O)cc1NC(=O)c1c[nH]c2cccc(O)c2c1=O [Compound 507, N-(2-ethyl-5-hydroxy-4-tert-butyl-phenyl)-5-hydroxy-4-oxo-1H-quinoline-3-carboxamide] | < 10 µM | ++ (between 25% to 100%)
29 | Cc1ccc(C(F)(F)F)cc1NC(=O)c1c[nH]c2ccccc2c1=O [Compound 577, N-[2-methyl-5-(trifluoromethyl)phenyl]-4-oxo-1H-quinoline-3-carboxamide] | < 10 µM | ++ (between 25% to 100%)
30 | O=C(Nc1ccccc1-c1ccc(Cl)cc1)c1c[nH]c2ccccc2c1=O [Compound 424, N-[2-(4-chlorophenyl)phenyl]-4-oxo-1H-quinoline-3-carboxamide] | < 10 µM | ++ (between 25% to 100%)
31 | CCOc1cccc2c(=O)c(C(=O)Nc3cc(O)c(C(C)(C)C)cc3C(C)(C)C)c[nH]c12 [Compound 616, 8-ethoxy-N-(5-hydroxy-2,4-ditert-butyl-phenyl)-4-oxo-1H-quinoline-3-carboxamide] | 10 to 25 µM | + (<25%)
32 | O=C(Nc1ccccc1C(F)(F)F)c1c[nH]c2ccccc2c1=O [Compound 111, 4-oxo-N-[2-(trifluoromethyl)phenyl]-1H-quinoline-3-carboxamide] | < 10 µM | ++ (between 25% to 100%)
33 | O=C(Nc1cnc2ccccc2c1)c1c[nH]c2ccccc2c1=O [Compound 75, 4-oxo-N-(3-quinolyl)-1H-quinoline-3-carboxamide] | 25 to 60 µM | + (<25%)
34 | CC(C)(C)c1cc(C(C)(C)C)c(NC(=O)c2c[nH]c3cccc(O)c3c2=O)cc1O [Compound 464, 5-hydroxy-N-(5-hydroxy-2,4-ditert-butyl-phenyl)-4-oxo-1H-quinoline-3-carboxamide] | < 10 µM | ++ (between 25% to 100%)
35 | O=C(Nc1ccc(OC(F)F)cc1)c1c[nH]c2ccccc2c1=O [Compound 360, N-[4-(difluoromethoxy)phenyl]-4-oxo-1H-quinoline-3-carboxamide] | < 10 µM | ++ (between 25% to 100%)
36 | CC(C)(C)c1cc2cc[nH]c2cc1NC(=O)c1c[nH]c2cccc(O)c2c1=O [Compound 500, 5-hydroxy-4-oxo-N-(5-tert-butyl-1H-indol-6-yl)-1H-quinoline-3-carboxamide] | < 10 µM | ++ (between 25% to 100%)
